From ChEMBL document CHEMBL3867439, “Affinity Crystallography: A New Approach to Extracting High-Affinity Enzyme Inhibitors from Natural Extracts” (J Nat Prod, 2016)

biological target: T1, Cathepsin K (Homo sapiens, UniProt P43235); test: Competitive inhibition of human recombinant cathepsin K using Z-FR-MCA fluorogenic substrate by Dixon plot analysis
T1 sequence (P43235 whole entry): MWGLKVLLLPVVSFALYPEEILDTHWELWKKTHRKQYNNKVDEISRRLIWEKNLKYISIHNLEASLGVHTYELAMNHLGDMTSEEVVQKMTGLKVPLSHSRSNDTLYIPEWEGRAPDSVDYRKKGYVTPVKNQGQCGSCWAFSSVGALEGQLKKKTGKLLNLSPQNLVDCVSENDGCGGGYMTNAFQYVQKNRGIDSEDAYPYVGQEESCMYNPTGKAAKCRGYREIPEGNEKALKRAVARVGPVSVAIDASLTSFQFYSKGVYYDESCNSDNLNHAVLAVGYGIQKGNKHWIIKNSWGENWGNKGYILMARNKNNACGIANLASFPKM

Structure (SMILES) | Ki [nM]
CC(C)[C@H](NC(=O)[C@H](CCCNC(=N)N)NC(=O)N[C@@H](Cc1ccccc1)C(=O)O)C(=O)NC1=CN(C(=N)N)CCC1 | 393
CC(C)[C@H](NC(=O)[C@H](CCCNC(=N)N)NC(=O)N[C@@H](Cc1ccccc1)C(=O)O)C(=O)NC1CCCN(C(=N)N)C1=O (stereo partly specified) | 163
CC(C)[C@H](NC(=O)[C@H](CCCNC(=N)N)NC(=O)N[C@@H](Cc1ccccc1)C(=O)O)C(=O)NC1CCCN(C(=N)N)C1O (stereo in doubt; form 1) | 105
CC(C)[C@H](NC(=O)[C@H](CCCNC(=N)N)NC(=O)N[C@@H](Cc1ccccc1)C(=O)O)C(=O)NC1CCCN(C(=N)N)C1O (stereo in doubt; form 2) | 69

biological target: T1, Cathepsin K; test: Competitive inhibition of human recombinant cathepsin K using Z-FR-MCA fluorogenic substrate by Handerson plot analysis

Structure (SMILES) | Ki [nM]
CC(C)[C@H](NC(=O)[C@H](CO)NC(=O)NCCCCNC(=N)N)C(=O)N[C@H]1CCCN(C(=N)N)C1O (stereo partly specified) | 11
CC(C)[C@H](NC(=O)[C@H](CCCNC(=N)N)NC(=O)N[C@@H](Cc1ccccc1)C(=O)O)C(=O)NC1CCCN(C(=N)N)C1O (stereo in doubt; form 2) | 41
